Experimental data published in paper PMC3467217, “A Potent Class of GPR40 Full Agonists Engages the EnteroInsular Axis to Promote Glucose Control in Rodents” (PLoS ONE, 2012).

How the values were obtained:
GPR40 = target: T1, GPR40 (Homo sapiens, UniProt O14842); assay: Inositol phosphate accumulation assay in A9 cells stably expressing GPR40 (A9_GPR40); format: cell-based; conditions: inositol phosphate assay
T1 construct: expressed in transfected cells; host or cells: CHO cell line stably expressing GPR40 and aequorin
Method: (§1) GPR40 aequorin, plasmid titration, and inositol phosphate assays were performed as described. For aequorin assays, in addition to transient transfection of GPR40 into CHO cells, a CHO cell line stably expressing both GPR40 and aequorin was generated. GLUTag cells were obtained under a license from Dr. Daniel Drucker, University of Toronto. Competition binding experiments were performed using membranes prepared from A9_GPR40 cells. […] Competition binding assays were carried out in 20 mM Hepes pH 7.5, 5 mM MgCl2, 100 mM NaCl and 0.1% (w/v) free fatty acid BSA and bound radioligand was collected on 96-well GF/C filter plates.
(A) Structure of selected GPR40 agonists. (B) GPR40 agonists were tested in parallel in vitro in an inositol phosphate accumulation assay in A9 cells stably expressing GPR40. (TIF) Click here for additional data file.

GPR43 (FFAR2) = target: T2, GPR43 (FFAR2) (Homo sapiens, UniProt O15552); assay: GPR43 aequorin assay; format: cell-based; conditions: up to 10 µM
T2 construct: expressed in transfected cells
Excerpt: (A) GPR41 (FFAR3) aequorin assay. GPR41 was force coupled to the calcium signaling pathway by co-transfecting the cells with Gqmyri5. (B) GPR43 (FFAR2) aequorin assay. The short chain fatty acid propionate acts as a natural agonist ligand for GPR41 and GPR43. (C) GPR120 aequorin assay. The unsaturated fatty acids α-LNN and DHA act as natural agonist ligands for GPR120. (D) PPAR-gamma luciferase assay using the thiazolidinedione rosiglitazone as a positive control. […] (TIF) Click here for additional data file.

PPAR alpha = PPAR alpha (Homo sapiens, UniProt Q07869); assay: PPAR-alpha luciferase reporter assay; format: cell-based; conditions: concentrations up to 10 µM
mouse islets [1] = assay: GSIS assay in mouse islets; format: cell-based; conditions: 16.7 mM glucose
Method: (§2) Mouse islets were isolated and tested for stimulation of GSIS as described. Human islets were purchased from Prodo labs or were obtained from the National Institutes of Health and Juvenile Diabetes Research Foundation supported Islet Cell Resource Consortium (http://icr.coh.org). Islet inositol phosphate assays were performed on islets cells that had been dispersed with trypsin. 10,000 islet cells were plated/well of a 96-well plate and were loaded with ^3H-myo-inositol (0.5 µCi/well) in RPMI overnight prior to treatment. The next day, response to different stimuli was tested in HBSS containing 10 mM LiCl and 0.1% HSA (w/v) for 1 hour at 37°C. Accumulated ^3H-inositol phosphate was measured after capture to SPA beads. Islet perifusion experiments were performed on mouse islets loaded into a Brandel Suprafusion system. Twenty islets were size-matched and loaded per perifusion chamber. Islets were perifused in KRBH containing, sequentially, 3 mM glucose, then 3 mM glucose containing 10 µM drug, 16.7 mM glucose containing 10 µM drug and finally returned to 3 mM glucose containing 10 µM drug. Insulin was measured using an insulin ELISA kit (Alpco). Fetal rat intestinal cells were isolated from e19-day old fetuses of pregnant Sprague-Dawley rats. Briefly, fetal intestines were isolated and digested in HBSS buffer containing 0.5 mg/ml collagenase (Sigma), 0.5 mg/ml of hyaluronidase (Sigma) and 0.05 mg/ml of deoxyribonuclease I (Roche) for 30 minutes at 37°C. The digestion was quenched using HBSS containing 15% FBS. Fetal rat intestinal cells were washed and cultured overnight in DMEM containing 5% FBS in 96-well plates. To test for secretion of GLP-1 and GIP in response to treatments, we incubated cells for 1 hour with treatments in KRBH buffer containing 0.05% BSA (w/v). GLP-1 and GIP1 secreted into the media was measured using ELISA kits specific for GLP-1 (Linco) or GIP (Millipore).

mouse islets [2] = assay: Mouse islet perifusion assay; format: cell-based; conditions: 10 µM compound
Method: as §2

[3] = system: islets isolated from GPR40 knockout mice; assay: GSIS assay with islets from GPR40 knock-out mice; format: cell-based, mouse
Method: as §2

[4] = system: fetal rat intestinal cells; assay: GLP-1 secretion assay with fetal rat intestinal cells; format: cell-based; conditions: 1 hour
Excerpt: Increased GLP-1 and GIP would be expected to have additional benefits in type 2 diabetics. […] We tested for potential effects on incretin secretion in vitro by using cells isolated from fetal rat intestines.
Mouse islets were isolated and tested for stimulation of GSIS as described. Human islets were purchased from Prodo labs or were obtained from the National Institutes of Health and Juvenile Diabetes Research Foundation supported Islet Cell Resource Consortium (http://icr.coh.org). Islet inositol phosphate assays were performed on islets cells that had been dispersed with trypsin. 10,000 islet cells were plated/well of a 96-well plate and were loaded with ^3H-myo-inositol (0.5 µCi/well) in RPMI overnight prior to treatment. The next day, response to different stimuli was tested in HBSS containing 10 mM LiCl and 0.1% HSA (w/v) for 1 hour at 37°C. Accumulated ^3H-inositol phosphate was measured after capture to SPA beads. Islet perifusion experiments were performed on mouse islets loaded into a Brandel Suprafusion system. Twenty islets were size-matched and loaded per perifusion chamber. […] Insulin was measured using an insulin ELISA kit (Alpco). […] GLP-1 and GIP1 secreted into the media was measured using ELISA kits specific for GLP-1 (Linco) or GIP (Millipore).

mouse GPR40 = mouse GPR40 (Mus musculus, UniProt Q76JU9); assay: Mouse GPR40 inositol phosphate accumulation assay; format: cell-based
Method: as §1

NONcNZO10/LtJ mice = assay: OGTT in NONcNZO10/LtJ type 2 diabetic mice; format: in vivo, mouse
Method: NONcNZO10/LtJ mice retain an intact leptin pathway but contain polygenic defects contributing to moderate and mature onset obesity and diabetes, [31].
All procedures on animals were approved by the Amgen San Francisco Institutional Animal Care and Use Committee (approved protocols #11–04 and #2007–00106). The Amgen San Francisco vivarium is an AAALAC accredited facility. Animals were housed under a 12-h light, 12-h dark cycle (lights-on 0600 h and lights-off 1800 h) and were allowed ad libidum access to chow and water. The HF/STZ mice were established as previously described. Briefly, C57BL/6j mice (Jackson labs) at 4 weeks of age were fed a high-fat diet (BioServ S1850, 35% fat) for 3-weeks and then injected with 95 mg/kg streptozotocin (Sigma) ip to induce beta cell dysfunction. The animals continued on the same high fat diet for 3–6 additional weeks. Animals were then randomized into treatment groups based on fasting blood glucose and insulin measures. NONcNZO10/LtJ (RCS10) male mice (Jackson labs) were used at 12-weeks of age and randomized for treatment based on fasting glucose levels. For OGTT experiments, drugs were formulated in 1% HPMC, 10% HPbCD, 1% Tween-80 and dosed via oral gavage. Glucose was administered at 2 g/kg 1-hour post drug dose by oral gavage.
(§3) For all glucose tolerance tests, glucose and insulin measurements were taken from tail vein samples at various time-points. Blood glucose values were measured on an Accu-Chek glucometer (Roche Diagnostics), while insulin levels were determined using an ELISA (Alpco).

C57/Bl6 mice = assay: IPGTT in C57BL/6j mice with or without GLP-1R antagonist Ex(9-39)NH2; format: in vivo, mouse
Method: An intraperitoneal rather than oral glucose challenge was performed in order to bypass the incretin effect of an oral glucose administration.
IPGTT experiments with Ex(9–39)NH2 (Bachem) were performed with male C57BL/6j (n = 6–7/group) at 26-weeks of age. Ex(9–39)NH2 was formulated in PBS containing 0.1%BSA and dosed ip at 300 µg/kg.
as §3

T1 sequence (O14842 whole entry): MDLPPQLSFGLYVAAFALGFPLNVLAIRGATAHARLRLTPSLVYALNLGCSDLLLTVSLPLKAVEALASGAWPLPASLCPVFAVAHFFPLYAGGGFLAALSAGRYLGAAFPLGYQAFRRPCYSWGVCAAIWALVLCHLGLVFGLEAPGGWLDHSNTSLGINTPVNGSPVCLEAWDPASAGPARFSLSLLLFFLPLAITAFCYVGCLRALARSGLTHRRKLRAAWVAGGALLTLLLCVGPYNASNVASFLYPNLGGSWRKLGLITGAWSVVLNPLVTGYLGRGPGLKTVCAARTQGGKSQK
Chain of PPAR alpha (Q07869 whole entry, species assumed): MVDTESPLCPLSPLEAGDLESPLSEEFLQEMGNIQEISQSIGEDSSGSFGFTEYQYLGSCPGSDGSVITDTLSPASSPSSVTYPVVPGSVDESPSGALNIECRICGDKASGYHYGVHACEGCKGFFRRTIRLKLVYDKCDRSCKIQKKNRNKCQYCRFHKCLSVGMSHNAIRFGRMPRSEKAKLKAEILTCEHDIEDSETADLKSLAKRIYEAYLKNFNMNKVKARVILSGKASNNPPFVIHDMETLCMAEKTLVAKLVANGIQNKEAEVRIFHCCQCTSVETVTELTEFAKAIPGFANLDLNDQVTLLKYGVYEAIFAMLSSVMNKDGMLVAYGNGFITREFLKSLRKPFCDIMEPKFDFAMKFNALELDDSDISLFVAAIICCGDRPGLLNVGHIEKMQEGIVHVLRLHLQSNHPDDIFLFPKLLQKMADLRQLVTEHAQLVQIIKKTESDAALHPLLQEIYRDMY
Chain of mouse GPR40 (Q76JU9 whole entry): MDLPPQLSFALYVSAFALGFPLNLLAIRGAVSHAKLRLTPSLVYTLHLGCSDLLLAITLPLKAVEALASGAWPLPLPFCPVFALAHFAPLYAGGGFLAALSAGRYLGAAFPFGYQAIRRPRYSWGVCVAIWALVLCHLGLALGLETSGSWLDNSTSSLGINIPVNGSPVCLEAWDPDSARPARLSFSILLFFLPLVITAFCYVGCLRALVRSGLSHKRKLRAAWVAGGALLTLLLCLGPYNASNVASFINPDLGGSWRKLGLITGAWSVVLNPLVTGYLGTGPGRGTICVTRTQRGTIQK
T2 sequence (O15552 whole entry, species assumed): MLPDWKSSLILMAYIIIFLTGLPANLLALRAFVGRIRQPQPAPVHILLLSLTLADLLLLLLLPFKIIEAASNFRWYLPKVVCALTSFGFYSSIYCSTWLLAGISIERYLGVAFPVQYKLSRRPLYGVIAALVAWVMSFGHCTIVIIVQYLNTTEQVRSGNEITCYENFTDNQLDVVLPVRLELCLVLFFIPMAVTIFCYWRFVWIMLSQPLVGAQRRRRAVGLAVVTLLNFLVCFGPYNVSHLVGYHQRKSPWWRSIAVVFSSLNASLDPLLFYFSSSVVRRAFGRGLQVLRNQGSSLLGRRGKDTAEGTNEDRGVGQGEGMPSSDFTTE

COc1ccc(F)c(-c2ccc(COc3cccc([C@@H](CC(=O)O)C4CC4)c3)cc2C2=CCCC2(C)C)c1 [AM-1638]
intrinsic activity, fold greater than AMG 837 (GPR40): ~2 fold | EC50 (GPR40; 1-hour accumulation, read-out: Half-maximal potency): 13.1 ± 1.1 nM | activation of GPR43 (FFAR2) (GPR43 (FFAR2)): did not activate | activation of PPAR alpha (PPAR alpha): did not activate | increase of insulin secretion, fold from that of AMG 837 (mouse islets [1]): 3–4 fold | EC50 (mouse islets [1]; read-out: EC50 for potentiation of insulin secretion): 990 ± 150 nM | insulin stimulation compared to vehicle control (mouse islets [2]; 3 mM glucose): neither AMG 837 nor AM-1638 stimulated insulin | insulin secretion (mouse islets [2]; 16.7 mM glucose): increased both first and second phase insulin secretion | GSIS response of GPR40 knockout islets [3]: did not respond | GLP-1 release in vitro [4]: could stimulate GLP-1 release | EC50 (mouse GPR40): 12.9 ± 1.4 nM | GIP levels vs vehicle (NONcNZO10/LtJ mice; 60 mg/kg, 15 minutes after glucose challenge): did not reach statistical significance | insulin and GLP-1 levels 15 minutes after glucose challenge (NONcNZO10/LtJ mice; 60 mg/kg, vs vehicle and baseline): significantly increased | Glucose AUC change as printed in figure 5B (NONcNZO10/LtJ mice; OGTT, 60mg/kg): -26% | Glucose AUC reduction compared to vehicle (NONcNZO10/LtJ mice; OGTT, single 60 mg/kg oral dose): 26% | glucose excursions during OGTT (NONcNZO10/LtJ mice; single 60 mg/kg oral dose): almost complete suppression | Glucose AUC reduction (C57/Bl6 mice; AM-1638 60 mg/kg alone): ~53% | Glucose AUC reduction (C57/Bl6 mice; AM-1638 60 mg/kg in the presence of exendin(9-39)NH2 300 µg/kg ip): ~25%
